According to ChEMBL document CHEMBL1201862, “PubChem BioAssay data set” (2004):
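Protocol summary: plate cells (96-well), add compound at 5 concentrations, incubate 48 h, interpolate endpoints linearly. GI50: concentration for 50% inhibition of growth.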 The source made the active and inactive calls. Cut-off read from the data, not from the text of the source: active = GI50 up to about 1.1 µM and inactive = higher.

What was measured:
Test in all cases: NCI-60 cell line screen, 48 h
OVCAR-8 = system: OVCAR-8
786-0 = system: 786-0
NCI-H522 = system: NCI-H522
SK-MEL-28 = system: SK-MEL-28
HL-60 = system: HL-60
IGROV-1 = system: IGROV-1
ACHN = system: ACHN
UACC-257 = system: UACC-257
CCRF-CEM = system: CCRF-CEM
HT-29 = system: HT-29
EKVX = system: EKVX
NCI-H23 = system: NCI-H23
UO-31 = system: UO-31
SF-268 = system: SF-268
SF-539 = system: SF-539
NCI-H226 = system: NCI-H226

Measured: GI50

CCOC(=O)C(=O)/C=C(\C)Nc1c(NC2OCC(OC(C)=O)C(OC(C)=O)C2OC(C)=O)nc(SC)[nH]c1=O (configuration not stated)
inactive: OVCAR-8 > 100 µM | 786-0 > 100 µM | NCI-H522 > 100 µM | SK-MEL-28 > 100 µM | HL-60 > 10 µM | IGROV-1 > 100 µM | ACHN > 100 µM | UACC-257 > 100 µM | CCRF-CEM > 100 µM | HT-29 > 100 µM | EKVX > 100 µM | NCI-H23 > 100 µM | UO-31 > 100 µM | SF-268 > 100 µM

CC(C)N(C(=O)C12C3C4C1C1C2C3C41C(O)C(C)(C)C)C(C)C (configuration not stated)
inactive: OVCAR-8 > 50 µM | 786-0 > 50 µM | NCI-H522 > 50 µM | SK-MEL-28 > 50 µM | HL-60 > 50 µM | IGROV-1 > 50 µM | ACHN > 50 µM | SF-539 > 50 µM | CCRF-CEM > 50 µM | HT-29 > 50 µM | EKVX > 50 µM | UO-31 > 50 µM | SF-268 > 50 µM

Cc1cc2c(c(C#N)c1C)NC(=O)C(CC(=O)O)C2=O (configuration not stated)
inactive: OVCAR-8 > 100 µM | 786-0 > 100 µM | SK-MEL-28 > 100 µM | HL-60 > 100 µM | IGROV-1 > 100 µM | ACHN > 100 µM | UACC-257 > 100 µM | SF-539 > 100 µM | CCRF-CEM > 100 µM | HT-29 > 100 µM | EKVX > 100 µM | NCI-H23 > 100 µM | UO-31 > 100 µM | SF-268 > 100 µM | NCI-H226 > 100 µM

CC(C)NCCNC(=O)c1ccccc1Nc1c(Cl)cccc1Cl
inactive: OVCAR-8 16.6 µM | 786-0 4.16 µM | SK-MEL-28 14.4 µM | HL-60 8.71 µM | IGROV-1 16 µM | ACHN 17.4 µM | UACC-257 10.3 µM | SF-539 15.8 µM | CCRF-CEM 10.5 µM | HT-29 4.71 µM | EKVX 13.6 µM | NCI-H23 17.7 µM | UO-31 10.1 µM | SF-268 18.1 µM | NCI-H226 13.5 µM

O=C(O)CCN(CCCN(CCC(=O)O)CCC(=O)O)CCC(=O)O
inactive: OVCAR-8 > 100 µM | 786-0 > 100 µM | NCI-H522 > 100 µM | SK-MEL-28 > 100 µM | HL-60 > 100 µM | IGROV-1 > 100 µM | ACHN > 100 µM | SF-539 > 100 µM | CCRF-CEM > 100 µM | HT-29 > 100 µM | EKVX > 100 µM | NCI-H23 > 100 µM | SF-268 > 100 µM

N#C/C(N)=N/c1ccccc1
inactive: OVCAR-8 > 100 µM | 786-0 > 100 µM | NCI-H522 > 100 µM | SK-MEL-28 > 100 µM | HL-60 > 100 µM | IGROV-1 > 100 µM | ACHN > 100 µM | SF-539 > 100 µM | CCRF-CEM > 100 µM | HT-29 > 100 µM | EKVX > 100 µM | NCI-H23 > 100 µM | UO-31 > 100 µM | SF-268 > 100 µM | NCI-H226 > 100 µM

CCCN/C(N)=N/C#N
inactive: OVCAR-8 > 100 µM | 786-0 25.3 µM | NCI-H522 > 100 µM | SK-MEL-28 > 100 µM | HL-60 > 100 µM | IGROV-1 > 100 µM | ACHN > 100 µM | UACC-257 > 100 µM | SF-539 > 100 µM | HT-29 30.8 µM | EKVX > 100 µM | NCI-H23 > 100 µM | UO-31 > 100 µM | SF-268 44.2 µM | NCI-H226 > 100 µM

COC(=O)C(=O)C1(CCC(C)=O)c2ccccc2-c2c(C)ccc(C)c21 (configuration not stated)
inactive: OVCAR-8 34.4 µM | 786-0 64 µM | NCI-H522 33.3 µM | SK-MEL-28 > 100 µM | HL-60 10.3 µM | IGROV-1 57.8 µM | ACHN 46.7 µM | UACC-257 33 µM | CCRF-CEM 37.1 µM | HT-29 32.7 µM | EKVX 31.4 µM | NCI-H23 24.7 µM | UO-31 25.4 µM | SF-268 52.2 µM | NCI-H226 > 100 µM

C=C1C(=O)c2cc3c(cc2C(c2cc(OC)c(OC)c(OC)c2)[C@@H]1C(=O)O)OCO3 (some centres not stated)
inactive: OVCAR-8 > 100 µM | 786-0 37 µM | NCI-H522 28.3 µM | SK-MEL-28 69.7 µM | IGROV-1 82 µM | ACHN > 100 µM | UACC-257 67 µM | SF-539 63.7 µM | CCRF-CEM 33 µM | HT-29 37.2 µM | EKVX > 100 µM | NCI-H23 57.7 µM | UO-31 58.6 µM | NCI-H226 > 100 µM

Cc1ccc2[nH]c(Sc3c([N+](=O)[O-])ncn3C)nc2c1
inactive: OVCAR-8 14.4 µM | 786-0 27.8 µM | SK-MEL-28 37.4 µM | IGROV-1 22.1 µM | ACHN 33 µM | UACC-257 12.6 µM | SF-539 18.1 µM | HT-29 29.6 µM | EKVX 26.1 µM | NCI-H23 18.6 µM | UO-31 27.5 µM | SF-268 31.5 µM | NCI-H226 12.8 µM
